From publication PMC9631757 (2022)

Test system: CBZ aptamer (DNA, aptamer) CGAGGCTCTCGGGACGACGGGGCACGGGCCTCTGGGTCGGCATGGCCCGTCGTCCCGCCTTTAGGATTTACAG
Conditions: upper bound only; assay and buffer not stated

Kd: < 12 nM
Structure (SMILES): NC(=O)N1c2ccccc2C=Cc2ccccc21
